Assay results reported in patent US4268503A, “Antibacterial composition” (Fujisawa Pharmaceutical Co., Ltd., priority 1979, dated 1981).

Experiments:
Type in all cases: cell-based
[1] = system: Klebsiella pneumoniae 8; test: Test 8: synergistic activity in various combination ratios (isobologram, growth); design: key: the symbol "+" means that the test microorganism grew; the symbol "-" means that the test microorganism did not grow
Description: Into a Nutrient broth (Difco) containing prescribed amounts of monosodium salt of 3-(N-formyl-N-hydroxyamino)-propylphosphonic acid and gentamicin sulfate, was inoculated 0.5% of 10-fold dilution of cultured broth of pathogen which was cultured overnight in Nutrient broth (Eiken). After the incubation was carried out at 37° C. for 18 hours, the growth of the test organism was observed.

[2] = system: Salmonella typhimurium 1406; test: Tests 2 and 3: MIC and synergism (FIC) in vitro; conditions: Salmonella enterica, 20 h
Description: (§1) On a Nutrient agar (Difco) containing prescribed amount of each of monosodium salt of 3-(N-formyl-N-hydroxyamino)propylphosphonic acid, monosodium salt of ampicillin and a mixture of 3-(N-formyl-N-hydroxyamino)propylphosphonic acid and monosodium salt of ampicillin (1:1 by weight), there was streaked a loopful of cultured broth of each pathogen, which was cultured overnight in Nutrient broth (Difco), in a concentration of 10^5 cells/ml. After the incubation was carried out at 37° C. for 20 hours, MIC values were determined.
(§2) FIC values and FIC Index were calculated in substantially the same manner as described in Test 1.
(§3) Synergistic activity of 3-(N-formyl-N-hydroxyamino)propylphosphonic acid and cefazolin; that of 3-(N-formyl-N-hydroxyamino)propylphosphonic acid and ticarcillin; and that of 3-(N-formyl-N-hydroxyamino)propylphosphonic acid and nocardicin A were tested in vitro in substantially the same manner as described in the above Test 2.

[3] = system: Enterobacter cloacae 1401-4; test: Tests 2 and 3: MIC and synergism (FIC) in vitro; conditions: 14014, E. cloacae 1401-4, Nutrient agar, 10^5 cells/ml, 37° C., 20 hours
Description: as §1, §2, §3

[4] = system: Serratia marcescens 1421-4; test: Tests 2 and 3: MIC and synergism (FIC) in vitro; conditions: 14214, S. marcescens 1421-4, Nutrient agar, 10^5 cells/ml, 37° C., 20 hours
Description: as §1, §2, §3

[5] = system: Klebsiella pneumoniae NCTC 418; test: Tests 2 and 3: MIC and synergism (FIC) in vitro; conditions: NCTC418, 20 h
Description: as §1, §2, §3

[6] = system: Staphylococcus epidermidis 1601-1; test: Tests 2 and 3: MIC and synergism (FIC) in vitro; conditions: 16011, S. epidermidis 1601-1, Nutrient agar, 10^5 cells/ml, 37° C., 20 hours
Description: as §1, §2, §3

[7] = system: Proteus mirabilis 1432-75; test: Tests 2 and 3: MIC and synergism (FIC) in vitro; conditions: Proteus mirabilis, 143275, 20 h
Description: as §1, §2, §3

O=CN(O)CCCP(=O)(O)O [3-(N-formyl-N-hydroxyamino)propylphosphonic acid]
growth of test microorganism ([1]; gentamicin sulfate 0, phosphonic acid 0.78 mcg/ml, 37° C., 18 hours): +
growth of test microorganism ([1]; gentamicin sulfate 0, phosphonic acid 1.56 mcg/ml): +
growth of test microorganism ([1]; gentamicin sulfate 0, phosphonic acid 3.13 mcg/ml): +
growth of test microorganism ([1]; gentamicin sulfate 0, phosphonic acid 6.25 mcg/ml): +
growth of test microorganism ([1]; gentamicin sulfate 0, phosphonic acid 12.5 mcg/ml): +
growth of test microorganism ([1]; gentamicin sulfate 0, phosphonic acid 25 mcg/ml): -

gentamicin
growth of test microorganism ([1]; gentamicin sulfate 0.001, phosphonic acid 0 mcg/ml): +
growth of test microorganism ([1]; gentamicin sulfate 0.003, phosphonic acid 0 mcg/ml): +
growth of test microorganism ([1]; gentamicin sulfate 0.006, phosphonic acid 0 mcg/ml): +
growth of test microorganism ([1]; gentamicin sulfate 0.01, phosphonic acid 0 mcg/ml): +
growth of test microorganism ([1]; gentamicin sulfate 0.025, phosphonic acid 0 mcg/ml): +
growth of test microorganism ([1]; gentamicin sulfate 0.05, phosphonic acid 0 mcg/ml): -

CC1(C)S[C@@H]2[C@H](NC(=O)[C@H](C(=O)O)c3ccsc3)C(=O)N2[C@H]1C(=O)O [ticarcillin]
MIC [2]: 1.56 µg/mL
MIC [3]: 50 µg/mL
MIC [4]: 25 µg/mL
MIC [5]: 100 µg/mL
MIC [6]: 3.13 µg/mL
MIC [7]: 0.78 µg/mL
